Laboratory results: US9644006B2, “Carrier peptides for cell delivery” (priority 2011, dated 2017)
Where two headings read alike, the source gives them in different places.

Tested on: Vero cells
Experiment: Effect of cytoskeleton depolymerizing drugs on delivery peptide (DynPro) movement
Type: cell-based, African green monkey
[1] = Vero cells with 10 μM DynPro, Nocodazole 2.5 μM 30 min, LatrunculinA 0.1 μM

SMILES | effect of the drug on delivery peptide transport movement | effect of the drug on delivery peptide transport movement [1]
C/C1=C\[C@H](C)C[C@H](C)OC(=O)C[C@H](c2ccc(O)cc2)NC(=O)[C@@H](Cc2c(Br)[nH]c3ccccc23)N(C)C(=O)[C@H](C)NC(=O)[C@@H](C)C1 [Jasplakinolide] | did not inhibit this movement | –
C/C1=C/C(=O)O[C@@H]2C[C@@H](CC[C@H](C)/C=C\C=C\CC1)O[C@@](O)([C@@H]1CSC(=O)N1)C2 [LatrunculinA] | – | transport was preserved
COC(=O)Nc1nc2ccc(C(=O)c3cccs3)cc2[nH]1 [Nocodazole] | – | abolished
